Literature values, collected in patent US20070020642A1, “Structural interaction fingerprint” (priority 2003, published 2007).

Molecular target: p38 (Homo sapiens, UniProt Q16539)
Settings: result in words, known from the literature

p38, sequence (Q16539 whole entry): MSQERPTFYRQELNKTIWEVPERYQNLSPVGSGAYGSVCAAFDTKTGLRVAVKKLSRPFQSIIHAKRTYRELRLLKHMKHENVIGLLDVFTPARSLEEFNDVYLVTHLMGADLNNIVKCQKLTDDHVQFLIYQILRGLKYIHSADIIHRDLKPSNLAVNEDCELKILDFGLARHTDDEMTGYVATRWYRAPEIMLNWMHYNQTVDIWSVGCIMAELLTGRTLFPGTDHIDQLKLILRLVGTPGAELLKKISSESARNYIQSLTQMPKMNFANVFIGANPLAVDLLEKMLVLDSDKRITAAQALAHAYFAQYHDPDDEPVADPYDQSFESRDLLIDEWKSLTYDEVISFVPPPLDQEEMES

p38 inhibition activity	Compound
potent p38 inhibitors	Fc1ccc(-c2nc3n(c2-c2ccncc2)CCS3)cc1 [SKF-86002]
no p38 inhibition activity	O=C(C(=C1SCS1)c1ccncc1)c1ccc(OC(F)(F)F)cc1 [Cmp-59076, 2-[1,3]Dithietan-2-pyridin-4-yl-1-(4-trifluoromethoxy-phenyl)-ethanone]
